Experimental data as given in patent publication US12551543B2, “Vaccine compositions comprising C—C motif chemokine 22 (CCL22) or fragments thereof” (IO BIOTECH APS, priority 2015, dated 2026).
“Also recorded” adds a separate entry of the source. Where two headings read alike, the source gives them in different places.

Experiments:
[1] = system: C57BL/6 mice; experiment: Murine CCL22 peptide vaccination, IFNγ ELISPOT on splenocytes; type: in vivo; details: 100 μg peptide s.c. in IFA/PBS once a week for 3 weeks
Description: Murine CCL22 peptide (TAG Copenhagen, Denmark) stocks of 10 mM (mCCL22Short) and 5 mM (mCCL22Long) were made in DMSO. Mice were vaccinated subcutaneously (s.c) on the lower back with 100 μg peptide in 1:1 (vol/vol) IFA/PBS emulsion in a total volume of 100 μl. Mice were vaccinated once a week for 3 weeks and sacrificed one week after the last vaccination.
Spleens from sacrificed mice were removed and smashed through a cell strainer ([…]) and washed with R10 media: RPMI 1640 (Gibco® by Life technologies™) with 10% FCS (Gibco® by Life technologies™). Red blood cells lysed by adding red blood cell lysis buffer for 2 min, followed by two washes with R10 with 10% fetal bovine serum.
ELISPOT was performed as described by the manufacturer's instruction. In short, 96-well MSIPN4W ELISPOT plate (Millipore) were coated with mouse IFNγ-specific capture Ab (AN18: Mabtech) in a concentration of 12 μg/ml in PBS overnight at 4° C., 8×10^5 or 4×10^5 splenocyteslwell were seeded in the plate in triplicates. To investigate IFNγ response to murine CCL22 peptides, cells were incubated with different peptides (5 μM) or R10 as control for 18-20 h at 37° C. ELISPOT was developed with mouse IFNγ-specific detection Ab (R4-6A2-biotin; Mabtech) in a concentration of 1 μg/ml in Buffer (PBS, 0.5% BSA and NaN3) for 2 h at room temperature, followed by 6 washes in PBS. […]

[2] = system: CCL22-specific T cell cultures; experiment: Intracellular staining for IFNγ and TNFα after peptide stimulation; type: cell-based, human
Description: (§1) The following day IL-7 and IL-12 (PeproTech, London, UK) were added. […] The day after peptide stimulation IL-2 (PeproTech, London, UK) was added. 4 DC stimulations and 1 PBMC stimulation were made in total.
The cells were then stained for surface markers, then washed and permeabilized by using Fixation/Permeabilization and Permeabilization Buffer (eBioscience), according to manufacturer's instructions. Antibodies used: IFNγ-PE-Cy7, TNFa-APC, CD4-PerCP, CD8− FITC (all from BD Biosciences). Dead cells were stained using LIVE/DEAD® Fixable Near-IR Dead Cell Stain Kit according to manufacturer's instructions.

[3] = system: PBMCs; experiment: Cytokine expression LUMINEX of PBMC supernatants after peptide stimulation; type: cell-based, human
Description: PBMCs from healthy donors or cancer patients were thawed and rested for 4 hours in X-VIVO 15™ (Lonza) before being set up into 24-well plates with 2×10^6 cells/well in X-Vivo medium with 5% human serum. […] Appropriate amount of DMSO was added to HIV control wells to control for the solvent of pCCL223-12 peptide. The following day, IL-2 was added to a final concentration of 120 U/ml (360 U for ascites cells stimulation). Supernatant samples were collected after 2 or 7 days of culture. Cells were stimulated twice before being tested in ELISPOT assay. Cell culture supernatants from PBMCs or ascites cells stimulated with CCL22-3 or HIV peptide were analyzed for IFN-γ, TNF-α, IL-6, IL-10 and 1 L-1β using Bio-Plex Pro™ Human Chemokine assays from Bio-Rad. […] Wilcoxon-signed rank test was used for statistical analysis of IL-10 expression due to multiple zero values.

[4] = system: CCL22; experiment: CCL22 ELISA of ovarian cancer ascites cell supernatants after peptide stimulation; type: cell-based, human; details: ascites cells from ovarian cancer patients, IL-2, compared to HIV peptide
Description: Peripheral Blood Mononuclear Cells (PBMC) were collected from healthy individuals and cancer patients (melanoma, renal cell carcinoma and breast cancer patients). Blood samples were drawn a minimum of four weeks after termination of any kind of anti-cancer therapy. PBMC were isolated using Lymphoprep™ separation, HLA-typed and frozen in FCS with 10% DMSO. Fresh ovarian ascites was filtered with a 70 μm filter and the cells were isolated by centrifugation (1500 […], 5 min). If the ascites contained a high abundance of erythrocytes, they were removed by adding lysis-buffer (Ortho-Mune Lysing Solution) to the cells with incubation of 3-5 min. The lysis-buffer was quickly washed away and the cells cryopreserved in human serum with 10% DMSO at −140 degrees until use. The protocol was approved by the Scientific Ethics Committee for The Capital Region of Denmark and conducted in accordance with the provisions of the Declaration of Helsinki. Written informed consent from the patients was obtained before study entry.
Cell culture supernatants from PBMC, cancer cell lines and ascites cell cultures as well as siRNA transfected THP-1 cells were analyzed using Human CCL22/MDC DuoSet ELISA kit (R&D Systems) according to manufacturer's instructions. […]

[5] = system: K562-A2 cells; experiment: 51Cr-release assay, HLA-A2-transfected K562 cells pulsed with peptide; type: cell-based
[6] = system: HLA-negative K562 cells; experiment: 51Cr-release assay, non-transfected K562 cells pulsed with peptide; type: cell-based
Description: (§2) Conventional ^51Cr-release assays for CTL-mediated cytotoxicity were carried out as described elsewhere (Andersen et al., 1999). Target cells were T2-cells (ATCC), HLA-A2^+ EBV transformed B-cell line (RPM16666), AML cells (UKE-1 and THP1) colon cancer cells (SW480), melanoma cell line (FM55-M2), Breast cancer cells MDA-MB231 with or without IFN-γ (100 U/m1) addition for 2 days prior to performing cytotoxicity assay.

[7] = system: CCL22; experiment: CCL22 ELISA of PBMC supernatants after peptide stimulation; type: cell-based, human
Description: Cell culture supernatants from PBMC, cancer cell lines and ascites cell cultures as well as siRNA transfected THP-1 cells were analyzed using Human CCL22/MDC DuoSet ELISA kit (R&D Systems) according to manufacturer's instructions.
PBMCs from healthy donors or cancer patients were thawed and rested for 4 hours in X-VIVO 15™ (Lonza) before being set up into 24-well plates with 2×10^6 cells/well in X-Vivo medium with 5% human serum. […] Appropriate amount of DMSO was added to HIV control wells to control for the solvent of pCCL223-12 peptide. The following day, IL-2 was added to a final concentration of 120 U/ml (360 U for ascites cells stimulation). Supernatant samples were collected after 2 or 7 days of culture. Cells were stimulated twice before being tested in ELISPOT assay.

[8] = system: PBMCs from a melanoma patient; experiment: HLA-A2/peptide tetramer staining; type: cell-based, human
Description: as §1
HLA-A2 multimers were produced in house by using a previously described MHC peptide exchange technology (15).

[9] = system: PBMCs from cancer patients and healthy donors; experiment: IFNγ ELISPOT on PBMCs; type: cell-based, human
Description: In the present study the ELISPOT was performed according to the guidelines provided by CIP (http://cimt.eu/cimt/files/dl/cip guidelines.pdf). The ELISPOT assay was used to quantify peptide epitope specific effector cells that release cytokines (IFNγ, TNFα, IL-17A or IL-10) as described previously (Sorensen et al., 2012). In some experiments, PBMCs were stimulated once in vitro with peptide prior to analysis. In some experiments, 104 autologous DCs were added to the wells as antigen presenting cells. The spots were counted using the ImmunoSpot Series 2.0 Analyzer (C.T.L.—Europe, Bonn, Germany). In some experiments, CD4+ cells were isolated by EasySep human CD4^+ T cell enrichment kit (Stem Cell technologies, Grenoble, France) following manufacturers' instructions. This yielded highly pure cultures (>97% CD4+), which was confirmed by staining with surface antibodies as described below for intracellular cytokine staining (ICS) and flow cytometry (FCM).
PBMCs were placed in the bottom of ELISPOT plate (nitrocellulose bottomed 96-well plates by MultiScreen MAIP N45; Millipore) pre-coated with IFN-γ capture Ab (Mabtech) and the peptides were added at 5 μg/ml. PBMCs from each patient were set up in duplicates or triplicates for peptide and control stimulations. Cells were incubated in ELISPOT plates in the presence of an antigen for 14-16 hours after which they are washed off and secondary biotinylated Ab (Mabtech) was added. After 2h incubation unbound secondary antibody was washed off and streptavidin conjugated alkaline phosphatase (AP) (Mabtech) was added for 1 h. Next, unbound conjugated enzyme is washed off and the assay is developed by adding BCIP/NBT substrate (Mabtech). Developed ELISPOT plates were analysed on CTL ImmunoSpot S6 Ultimate-V analyzer using Immunospot software v5.1. Responses were calculated as the difference between average numbers of spots in wells stimulated with pCCL223-12 peptide and control wells. […]

[10] = system: T2 cells; experiment: 51Cr-release cytotoxicity assay, peptide-pulsed T2 cells; type: cell-based; details: for T-cell avidity of pCCL223-12-specific T cells, peptide titration: effector to target ratio 3:1
Description: as §2, with “assay. For peptide titration cytotoxicity assay, T2 cells were used as target cells and a constant effector to target ratio of 3:1 was used for all peptide concentrations.” for “assay.”

VALVLLAVAI (listed as Mus musculus) [mCCL22short, short murine CCL22 peptide; part of mCCL22Long]
IFNγ ELISPOT immune response of splenocytes of vaccinated mice [1]: increased immune response

RLQTALLVVL (listed as Homo sapiens) [pCCL223-12, Polypeptide fragment of human CCL22]
CD4+ T cell response (IFNγ, TNFα) to peptide stimulation [2]: no response detected | CD4+ T cell response (IFNγ, TNFα) to peptide stimulation ([2]; listed as CCL22-3): no reactivity | CD8+ T cell response (IFNγ, TNFα) to peptide stimulation ([2]; listed as CCL22-3): CD8+ (Left) and not CD4+ (Right) T cells react; also recorded: secreting IFN-γ and TNF-α | CD8+ cells secreting IFNγ and TNFα in response to peptide stimulation ([2]; tetramer-isolated, expanded culture): Around 30% | IL-10 in the supernatants after stimulation [3]: almost undetectable | IL-6 level compared to HIV control peptide ([3]; PBMCs from 11 cancer patients, one week of stimulation): significant increase | cultures with decreasing TNFα levels ([3]; PBMCs from cancer patients, one week of stimulation): 7 out of 11 | cultures with decreasing TNFα levels ([3]; PBMCs from healthy donors, one week of stimulation): 7 out of 10 | IFN-γ concentration versus control peptide ([3]; culture supernatants): no unambiguous differences | IL-1β concentration versus control peptide ([3]; culture supernatants): no unambiguous differences | IL-10 concentration versus control peptide ([3]; culture supernatants): no unambiguous differences | IL-1 induced after stimulation ([3]; data not shown): only one cancer patient and two healthy donors | overall CCL22 levels in supernatants [4]: decrease | overall CCL22 levels in supernatants ([4]; listed as CCL22-3): affected | recognition of HLA-A2-transfected K562 cells pulsed with peptide [5]: only recognized | recognition of HLA-A2-transfected K562 cells pulsed with peptide ([5]; listed as CCL22-3): recognized and killed | recognition of non-transfected K562 cells pulsed with peptide [6]: not recognized | CCL22 concentration in supernatants compared to HIV control peptide ([7]; PBMCs from 11 healthy donors, one week after stimulation): significantly decreased | overall decrease in CCL22 concentration compared to HIV control peptide ([7]; PBMCs from 13 cancer patients, one week after stimulation): did not reach significance | CCL22 concentration compared to HIV control peptide ([7]; PBMCs from cancer patients with high CCL22 expression (≥5000 pg/mL)): significant decrease | CCL22 expression in supernatant compared to HIV control peptide ([7]; donor PBMCs with ELISPOT response, over one week, IL-2): lower | tetramer-positive cells ([8]; after five stimulations with peptide-pulsed autologous DCs or PBMCs): small but distinct population of tetramer-positive cells | tetramer-positive cells ([8]; after tetramer isolation and expansion): clear population | spontaneous specific T-cell reactivity, IFN-γ ELISPOT ([9]; PBMCs from 13 cancer patients and 10 healthy individuals, peptide stimulation for two weeks with low-dose IL-2): detected in a number of melanoma patients and healthy donors | overall ELISPOT responses, healthy donors versus cancer patients ([9]; peptide stimulation for two weeks with low-dose IL-2): similar | specific responses by IFNγ ELISPOT ([9]; screen of PBMCs from cancer patients): Indications for specific responses | lysis of peptide-pulsed T2 cells by CCL22-specific T cells [10]: able to lyse | T-cell avidity of pCCL223-12-specific T cells, peptide titration [10]: highest avidity | T-cell avidity of pCCL223-12-specific T cells, peptide titration ([10]; listed as CCL22-3): recognized better | lysis of peptide-pulsed T2 cells by CCL22-specific T cells ([10]; listed as CCL22-3): lysed; also recorded: specifically recognize and lyse

MATLRVPLLVALVLLAVAIQTS (listed as Mus musculus) [mCCL22long, long murine CCL22 peptide]
IFNγ ELISPOT immune response of splenocytes of vaccinated mice [1]: increased immune response

RLQTALLVV (listed as Homo sapiens) [pCCL223-11, Polypeptide fragment of human CCL22]
T-cell avidity of pCCL223-12-specific T cells, peptide titration [10]: reacted towards both peptides | T-cell avidity of pCCL223-12-specific T cells, peptide titration ([10]; listed as CCL22-2): cross-react

MDRLQTALLVVLVLLAVALQAT (listed as Homo sapiens) [CCL22long, Polypeptide fragment of human CCL22]
lysis of peptide-pulsed T2 cells by CCL22-specific T cells [10]: recognized and killed | lysis of peptide-pulsed T2 cells by CCL22-specific T cells ([10]; listed as CCL22-signal peptide): lysed
